# Source: patent publication US7943804B2, “Lutein extraction from ozone-treated plant sources” (Board of Supervisors of Louisiana State University and …, priority 2006, dated 2011)
# Read-outs that look alike come from different tables or passages of the source.
# Experiments:
# [1] = tested on: AFB1 mutagenicity, Salmonella strains; conditions: cited from earlier work
# [2] = tested on: AFB1 mutagenicity in Salmonella typhimurium tester strain TA100; format: cell-based; conditions: AFB1 500 ng/plate
# [3] = tested on: Salmonella typhimurium tester strain TA100; conditions: for Number of Revertants (without use of AFB1): TA100
# [4] = tested on: Salmonella typhimurium tester strain TA100; format: cell-based
molecule,measurement,setting,value
CC1=CCCC(C)(C)[C@H]1/C=C/C(C)=C/C=C/C(C)=C/C=C/C=C(C)/C=C/C=C(C)/C=C/C1=C(C)CCCC1(C)C [α-carotene],mutagenic effect of aflatoxin relative to control,[1],2%
"CC1=C[C@H](O)CC(C)(C)[C@H]1/C=C/C(C)=C/C=C/C(C)=C/C=C/C=C(C)/C=C/C=C(C)/C=C/C1=C(C)C[C@@H](O)CC1(C)C [Lutein, β, e-carotene-3,3′-diol]","inhibition of AFB1 mutagenicity, result in words",[2]; TA100,inhibited AFB1 (500 ng/plate) mutagenicity in a dose-response manner
same,Number of Revertants,[2]; lutein standard 0.02 μg/plate,876 ± 34
same,Percent Inhibition,[2]; lutein standard 0.02 μg/plate,5.3%
same,Number of Revertants,[2]; lutein standard 0.2 μg/plate,813 ± 45
same,Percent Inhibition,[2]; lutein standard 0.2 μg/plate,12.1%
same,Number of Revertants,[2]; lutein standard 0.8 μg/plate,741 ± 25
same,Percent Inhibition,[2]; lutein standard 0.8 μg/plate,19.9%
same,Number of Revertants,[2]; lutein standard 2 μg/plate,679 ± 39
same,Percent Inhibition,[2]; lutein standard 2 μg/plate,26.6%
same,Number of Revertants,[2]; lutein standard 10 μg/plate,568 ± 50
same,Percent Inhibition,[2]; lutein standard 10 μg/plate,38.6%
same,mutagenic effect of aflatoxin relative to control,[1],2%
same,"inhibition of AFB1 mutagenicity, result in words",[1]; test based on Salmonella strains,inhibit the mutagenicity of AFB1
same,mutagenic effect (increase of revertants over the natural rate),"[3]; TA100, result in words",neither purified lutein nor corn lutein extracts increase the number of revertants over the natural rate
same,Number of Revertants (without use of AFB1),[3]; lutein standard 0.02 μg/plate,247 ± 15
same,Number of Revertants (without use of AFB1),"[3]; lutein standard 0.2 μg/plate, listed as Lutein Standard",258 ± 10
same,Number of Revertants (without use of AFB1),"[3]; lutein standard 0.2 μg/plate, listed as lutein standard",254
same,Number of Revertants (without use of AFB1),"[3]; lutein standard 0.8 μg/plate, listed as Lutein Standard",261 ± 13
same,Number of Revertants (without use of AFB1),"[3]; lutein standard 0.8 μg/plate, listed as lutein standard",261
same,Number of Revertants (without use of AFB1),[3]; lutein standard 2 μg/plate,243 ± 8
same,Number of Revertants (without use of AFB1),"[3]; lutein standard 10 μg/plate, listed as Lutein Standard",264 ± 12
same,Number of Revertants (without use of AFB1),"[3]; lutein standard 10 μg/plate, listed as lutein standard",264
aflatoxin B1 [AFB1],mutagenic potency,[4],about 925 revertants/plate
